The results in this text go back to patent US5360925A, “Dual inhibitors of no synthase and cyclooxygenase, process for their preparation and therapeutical compositions containing them” (priority 1992, dated 1994).

The test system of experiment [1] is J774 A1 monocyte/macrophage cell line. Nature of the experiment: In vitro effect on nitrite production induced by LPS+INFγ on J774 A1 monocyte/macrophage cell line. The format is cell-based, murine. The text has this: 5-In vitro effect on nitrite production induced by LPS+INFγ on J774 A1 monocyte/macrophage cell line:
Macrophage type cells like J774 A1 cell line are interesting to use since they are important cells in inflammation and express large amount of NO (due to the induction of NO synthase) and cyclooxygenase products. They are activated with lipopolysaccharide (LPS) in presence of interferon γ (INFγ). This assay was used to compare the effects of compounds of the invention with the association of their separated parent compounds.
Murine monocyte/macrophage cells were grown in Dubecco's modified Eagle's medium at 37° C. The cells were plated in 24 well culture plate (NUNC) and were used for experiments at about 2×10^5 cells/plate. The cells were activated with LPS (1 μg/ml) from E. Coli (SO55:B5) and murine recombinant IFNγ (50 U/ml) and then incubated in the presence or absence of the compounds. After 48 h nitrite (NO2 -) levels, which correlate with the activation of NO synthase, were assessed in the culture media by the colorimetric method according to Green et al (L. Green, D. Wagner, J. Glogowski, P. Skipper, J. Wishwok and S. Tannenbaum, Analysis of nitrate, nitrite and [15N] nitrate in biological fluids. Analytical Biochemistry 126, 131-138, 1982).

Experiment [2] has as its system neuronal death after focal cerebral ischemia. Nature of the experiment: In vivo effect on neuronal death after focal cerebral ischemia in mice. The following applies: 3 mg/kg ip, 5 hours after middle cerebral artery occlusion; mean of six animals. The protocol: 9-In vivo effect on neuronal death after focal cerebral ischemia in mice:
Systemic intraperitoneal (ip) administration of the compounds was carried out 5 hours after cortical infarction induced by the occlusion of the middle cerebral artery in male Swiss mice (20-22 g), according to Duverger et al.--Pharmacology of cerebral ischemia in Krieglstein and Oberpichler, Wissenschaftliche Verlagsgesellschaft, Stuttgart, 1990, 409-413. Four days later, the mice were decapitated and their brains removed and frozen to be then sectioned in coronal slices of […] thickness. Area infarction was measured by image analysis. Reduction of infarcted volume was measured and compared with non treated animal. The percentage indicated the mean reduction of infarct from six animals per group--MK 801, a NMDA antagonist was used as a control substance.

The subject of experiment [3] is vascular reactivity to methoxamine. Nature of the experiment: In vivo effect on endotoxin treated pithed rat. The following applies: dose 30 mg/kg/h; endotoxin 300 μg/kg/h; control 79 ± 9, EDTX 278 ± 34. As for the experimental part:
10-In vivo effect on endotoxin treated pithed rat:
As previously reported, the association of an inhibitor of NO synthase and an inhibitor of cyclooxygenase has a synergistic effect to restore the blood pressure and vascular reactivity in an endotoxinic or septic animal.
Male Sprague Dawley rats (body weight 280-320 g) were pithed. One hour after pithing, animals were given endotoxin (EDTX, Escherichia Coli, lipopolysaccharide, O III, B4 =300 μg/kg/h) for 60 minutes. […]

In experiment [4] the target is T1, constitutive NO synthase (Rattus norvegicus, UniProt Q62600).
T1 construct: Preparations of isolated rat aorta with endothelium; from tissue; host or cells: isolated thoracic aorta rings with endothelium, Sprague Dawley rat
T1 sequence (Q62600 2-1202 limits assumed): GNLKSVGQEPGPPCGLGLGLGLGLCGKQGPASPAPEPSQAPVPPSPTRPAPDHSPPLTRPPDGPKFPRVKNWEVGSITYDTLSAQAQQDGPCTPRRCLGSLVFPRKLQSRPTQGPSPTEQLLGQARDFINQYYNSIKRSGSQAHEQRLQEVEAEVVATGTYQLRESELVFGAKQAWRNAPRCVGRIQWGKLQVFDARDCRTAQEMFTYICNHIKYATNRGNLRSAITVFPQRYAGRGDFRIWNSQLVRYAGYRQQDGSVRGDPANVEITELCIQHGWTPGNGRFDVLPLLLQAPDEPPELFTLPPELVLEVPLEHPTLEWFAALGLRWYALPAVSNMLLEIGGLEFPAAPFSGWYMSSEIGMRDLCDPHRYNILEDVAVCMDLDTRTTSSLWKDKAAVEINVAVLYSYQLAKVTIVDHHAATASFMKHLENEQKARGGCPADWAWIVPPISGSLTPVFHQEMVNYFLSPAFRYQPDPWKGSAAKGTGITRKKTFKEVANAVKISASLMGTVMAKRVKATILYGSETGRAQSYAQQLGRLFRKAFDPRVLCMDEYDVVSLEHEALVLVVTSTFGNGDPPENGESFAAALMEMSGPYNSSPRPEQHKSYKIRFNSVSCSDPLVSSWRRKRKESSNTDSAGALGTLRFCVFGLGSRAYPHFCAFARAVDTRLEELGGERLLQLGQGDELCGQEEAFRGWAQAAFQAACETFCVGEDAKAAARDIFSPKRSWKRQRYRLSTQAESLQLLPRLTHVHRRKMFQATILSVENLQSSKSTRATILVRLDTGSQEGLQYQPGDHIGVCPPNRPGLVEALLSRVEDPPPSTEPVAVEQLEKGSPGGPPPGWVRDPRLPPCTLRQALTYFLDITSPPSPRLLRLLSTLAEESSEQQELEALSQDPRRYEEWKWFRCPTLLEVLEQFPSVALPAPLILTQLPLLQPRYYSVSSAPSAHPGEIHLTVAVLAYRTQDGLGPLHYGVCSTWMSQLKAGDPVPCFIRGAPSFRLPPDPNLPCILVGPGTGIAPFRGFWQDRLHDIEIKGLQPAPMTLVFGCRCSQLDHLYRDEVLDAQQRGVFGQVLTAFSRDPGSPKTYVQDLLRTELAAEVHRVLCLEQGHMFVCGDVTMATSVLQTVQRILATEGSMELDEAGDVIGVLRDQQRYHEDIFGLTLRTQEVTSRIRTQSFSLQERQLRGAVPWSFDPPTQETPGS
The experiment can be described thus: In vitro effect on constitutive NO synthase in the isolated rat aorta. The class given is cell-based. Particulars: isolated rat aorta with endothelium; reversal of carbachol relaxation; PE 1 μM; read-out: Test on constitutive NO synthase IC50. The protocol: 1-In vitro effect on constitutive NO synthase in the isolated rat aorta;
Preparations of isolated rat aorta with endothelium were prepared as previously described (M. Auguet, S. Delaflotte, P. E. Chabrier and P. Braquet--Comparative effects of endothelium and phorbol 12-13 dibutyrate in rat aorta, Life Sciences, 1989, 45, 2051-2059).
Male Sprague Dawley rats (270-360 g, Charles River, Paris) were sacrificed by cervical dislocation and the thoracic aorta removed and cleaned of the surrounding tissue. Rings 2 mm wide were suspended in organ baths containing 10 ml of physiological solution (for composition, see below) under a tension of 2 g at 37° C. and gassed with O2 /CO2 (95%/5%). Contractile responses were measured, using force displacement transducers (Slatham UC2) coupled to a Gould 8000 S polygraph. An equilibration period of one hour was allowed before experimentation. Normal physiological solution was composed of (mM): NaCl, 118; KCl, 4.7; CaCl2, 2.5; KH2 PO4, 1.2; MgSO4, 0.6; NaHCO3, 25; glucose, 11. After equilibration in normal medium, the preparation was subjected to a near maximal dose (about 95%) of phenylephrine (PE, 1 μM). When the contraction was stable, carbachol (10 μM) was tested in order to evaluate the presence or absence of endothelium. […]

Experiment [5] deals with T2, inducible NO synthase (Rattus norvegicus, UniProt Q06518).
T2 construct: the compounds were tested on isolated rat aorta from shocked animal; from tissue; host or cells: thoracic aorta rings, endothelium removed, from endotoxin-treated Sprague Dawley rats
The experiment can be described thus: In vitro effect on inducible NO synthase in the isolated rat aorta from endotoxin-shocked animal. The format is cell-based. Particulars: aorta from endotoxin-treated rats, endothelium disrupted; PE 1 μM; read-out: Test on inducible NO synthase IC50.

For experiment [6], the target named is T3, cyclooxygenase (Mus musculus, UniProt Q05769).
T3 construct: main cyclooxygenase products produced by J774A1 cell line; endogenous in cells
T3 sequence (Q05769 18-604): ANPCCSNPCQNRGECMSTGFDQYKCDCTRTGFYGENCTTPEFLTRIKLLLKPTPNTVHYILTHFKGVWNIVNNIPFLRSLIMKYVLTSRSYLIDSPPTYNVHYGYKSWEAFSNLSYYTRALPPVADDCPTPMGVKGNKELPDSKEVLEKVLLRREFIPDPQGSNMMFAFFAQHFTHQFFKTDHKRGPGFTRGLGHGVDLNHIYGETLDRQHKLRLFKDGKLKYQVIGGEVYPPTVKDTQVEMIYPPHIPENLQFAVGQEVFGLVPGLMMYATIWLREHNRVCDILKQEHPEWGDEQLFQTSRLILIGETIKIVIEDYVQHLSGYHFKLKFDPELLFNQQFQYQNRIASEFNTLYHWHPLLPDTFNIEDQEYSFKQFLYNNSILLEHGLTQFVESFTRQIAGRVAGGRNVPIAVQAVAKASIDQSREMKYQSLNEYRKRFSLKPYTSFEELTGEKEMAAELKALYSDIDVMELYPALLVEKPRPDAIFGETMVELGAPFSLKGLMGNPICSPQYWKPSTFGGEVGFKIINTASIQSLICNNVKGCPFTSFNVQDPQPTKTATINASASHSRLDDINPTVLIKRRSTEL
Nature of the experiment: In vitro effect on prostaglandin (6 keto PGF1α) production induced by LPS+IFNγ on J774A1 monocyte/macrophage cell line. The format is cell-based, murine. Particulars: for effect on release of 6 keto PGF1α: LPS+IFNγ, J774A1 culture media. As for the experimental part:
6-In vitro effect on prostaglandin production induced by LPS+IFNγ on J774A1 monocyte/macrophage cell line:
Levels of one of the main cyclooxygenase products produced by J774A1 cell line (i.e.: 6 keto PGF1α) the stable metabolite of PGI2 were assessed in the culture media by a specific radioimmunoassay (NEN, Kit NEK 025).

As to `CNC(=N)NCCC[C@H](N)C(=O)O.O=C(O)c1ccccc1O` [Example 2], the “% OF INHIBITION of nitrite production” value was found to be 75.5% in experiment [1] (10^-4 M, LPS+INF, J774); 61% in experiment [1] (10^-5 M, LPS+INF, J774); 53% in experiment [1] (10^-6 M, LPS+INF, J774). For the same compound, the Reduction of infarct in experiment [2] is recorded as -55%. Also, the “vascular reactivity to methoxamine DE50” value in experiment [3] turned out to be 98 ± 35 µg/kg.
On to `CNC(=N)NCCCC(N)C(=O)O.Cc1cccc(Nc2ccccc2C(=O)O)c1C` [Example 12], for which the 50% inhibitory concentration (IC50) in experiment [4] was determined as 10 µM.
For the compound `CC1=C(CC(=O)O)c2cc(F)ccc2/C1=C\c1ccc([S+](C)[O-])cc1.N=C(NCCC[C@H](N)C(=O)O)N[N+](=O)[O-]` (stereo not shown) [Example 13], the “% OF INHIBITION of nitrite production” value in experiment [1] (10^-4 M, LPS+INF, J774) was 71%; in experiment [1] (10^-5 M, LPS+INF, J774), 63%; in experiment [1] (10^-6 M, LPS+INF, J774) it was 56%.
As to `COC(=O)[C@H](CCCNC(N)=N[N+](=O)[O-])NC(=O)c1ccccc1OC(C)=O` [Example 16], the IC50 worked out at 9 µM in experiment [4] and 4 µM in experiment [5].
For `COC(=O)C(CCCNC(=N)N[N+](=O)[O-])NC(=O)CC1=C(C)C(=Cc2ccc([S+](C)[O-])cc2)c2ccc(F)cc21` (stereo not shown) [Example 17], the inhibition at 100 µM in experiment [1] (Mus musculus, J774.A1, 10^-4 M, LPS+INF, J774) came out at 73%; in experiment [6] (J774.A1, 10^-4 M, LPS+INF, J774A1, read-out: % OF INHIBITION of 6-keto PG F1 production), 92%. The inhibition at 10 µM in experiment [1] (Mus musculus, J774.A1, 10^-5 M, LPS+INF, J774) turned out to be 57%; in experiment [6] (J774.A1, 10^-5 M, LPS+INF, J774A1, read-out: % OF INHIBITION of 6-keto PG F1 production), 83%. The inhibition at 1 µM amounted to 49% in experiment [1] (Mus musculus, J774.A1, 10^-6 M, LPS+INF, J774) and 74% in experiment [6] (J774.A1, 10^-6 M, LPS+INF, J774A1, read-out: % OF INHIBITION of 6-keto PG F1 production). Further, the Reduction of infarct in experiment [2] is -69%.
Consider `COC(=O)[C@@H](N)CCCNC(N)=N[N+](=O)[O-]` [L-NAME, N-ω-nitro-L-Arginine methyl ester, reference compound], for which the “effect on release of 6 keto PGF1α” value in experiment [6] is on record as “not affected”.
For the compound `NC(=N[N+](=O)[O-])NCCC[C@H](N)C(=O)O` [L-NO, N-ω-nitro-L-Arginine, reference compound], the IC50 in experiment [1] (Mus musculus, J774.A1, activated cells, LPS 1 μg/ml + IFNγ 50 U/ml, 48 h) amounted to 15 µM. Moreover, the “effect on release of 6 keto PGF1α” value in experiment [6] is listed as “not affected”.
Consider `C[C@]12N[C@H](Cc3ccccc31)c1ccccc12` [MK 801, reference compound], for which, in experiment [2], the Reduction of infarct is on record as -51%.

Usually IC50 stands for the concentration that inhibits the measured activity by half. For orientation: inhibition means the change of the read-out against control, counted positive when it falls.
